# Data from patent publication US8507494B2, “Heterocyclic quinolizine derived M1 receptor positive allosteric modulators” (Merck Sharp & Dohme Corp., priority 2010, dated 2013).
# Target: T1, acetylcholine muscarinic M1 receptor (Homo sapiens, UniProt P11229)
# T1 construct: expressed in transfected cells; host or cells: CHOnfat cells (CHOnfat/hM1)
# T1 sequence (P11229 1-460): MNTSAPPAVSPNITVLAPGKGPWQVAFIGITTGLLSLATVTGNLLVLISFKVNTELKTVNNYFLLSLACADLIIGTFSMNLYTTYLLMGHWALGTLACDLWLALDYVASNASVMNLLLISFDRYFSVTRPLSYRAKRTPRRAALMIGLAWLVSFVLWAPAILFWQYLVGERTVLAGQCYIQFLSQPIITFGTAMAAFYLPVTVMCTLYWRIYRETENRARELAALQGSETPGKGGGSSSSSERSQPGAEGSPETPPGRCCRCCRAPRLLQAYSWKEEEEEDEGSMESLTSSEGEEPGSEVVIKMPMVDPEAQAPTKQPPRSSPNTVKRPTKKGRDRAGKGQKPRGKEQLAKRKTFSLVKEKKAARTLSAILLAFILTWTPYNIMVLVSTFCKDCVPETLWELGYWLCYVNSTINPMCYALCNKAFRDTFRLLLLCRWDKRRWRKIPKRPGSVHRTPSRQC
# Assay: FLIPR intracellular calcium assay for M1 receptor positive allosteric modulator activity
# Format: cell-based
# Conditions: inflection point from FLIPR values; CHOnfat/hM1 cells; 4 min preincubation, then EC20 acetylcholine (3 nM final); read-out: M1 IP Value
# Procedure: The assay studies the effect of one or several concentrations of test compounds on basal or acetylcholine-stimulated Ca^2+ levels using FLIPR.
# Compounds are prepared and subjected to a preincubation period of 4 min. Thereafter, a single EC20 concentration of acetylcholine is added to each well (3 nM final). The intracellular Ca^2+ level of each sample is measured and compared to an acetylcholine control to determine any modulatory activity.
# Cells: CHOnfat/hM1, hM2, hM3 or hM4 cells are plated 24 hr before the assay at a density of 18,000 cells/well (100 μL) in a 384 well plate. CHOnfat/hM1 and CHOnfat/hM3 Growth Medium: 90% DMEM (Hi Glucose); 10% HI FBS; 2 mM L-glutamine; 0.1 mM NEAA; Pen-Strep; and […] Geneticin, are added. For M2Gqi5CHOnfat and M4Gqi5CHOnfat cells, an additional 600 ug/ml hygromycin is added.
# Equipment: 384 well plate, 120 μL addition plate; 96-well Whatman 2 ml Uniplate Incubator, 37° C., 5% CO2; Skatron EMBLA-384 Plate Washer; Multimek Pipetting System; Genesis Freedom 200 System; Mosquito System; Temo Nanolitre Pipetting System; and FLIPR^384 Fluorometric Imaging Plate Reader System are used.
# Buffers. […]
# After 60 min, the cells are washed three times with 100 μL of buffer, leaving 30 μL of buffer in each well. […] A signal test to check background fluorescence and basal fluorescence signal is performed. […]
row,Compound,EC50 [nM]
1,"Cc1ccnc(C2(C#N)CCN(Cc3cc4c(=O)n(-c5ccccc5F)nc-4n4ccccc34)CC2)c1 [Example 1, 1-{[2-(2-Fluorophenyl)-3-oxo-2,3-dihydropyrazolo[4,3-c]quinolizin-5-yl]methyl}-4-(4-methylpyridin-2-yl)piperidine-4-carbonitrile]",175
2,"Cn1cc(N2CCN(Cc3cc4c(=O)n(-c5ccccc5F)nc-4n4ccccc34)CC2=O)cn1 [Example 2, 2-(2-Fluorophenyl)-5-{[4-(1-methyl-1H-pyrazol-4-yl)-3-oxopiperazin-1-yl]methyl}pyrazolo[4,3-c]quinolizin-3(2H)-one]",322
